Here are results for 1 compound from patent US11642344B2, “Cholesteryl ester transfer protein (CETP) inhibitor and pharmaceutical compositions comprising said inhibitor for use in the treatment or prevention of cardiovascular diseases” (NewAmsterdam Pharma B.V., priority 2014, dated 2023).

Experiment [1] concerns the target T1, CETP (Homo sapiens, UniProt P11597).
T1 construct: from tissue; host or cells: plasma of Caucasian male subjects dosed with Compound A or placebo
T1 sequence (P11597 18-493): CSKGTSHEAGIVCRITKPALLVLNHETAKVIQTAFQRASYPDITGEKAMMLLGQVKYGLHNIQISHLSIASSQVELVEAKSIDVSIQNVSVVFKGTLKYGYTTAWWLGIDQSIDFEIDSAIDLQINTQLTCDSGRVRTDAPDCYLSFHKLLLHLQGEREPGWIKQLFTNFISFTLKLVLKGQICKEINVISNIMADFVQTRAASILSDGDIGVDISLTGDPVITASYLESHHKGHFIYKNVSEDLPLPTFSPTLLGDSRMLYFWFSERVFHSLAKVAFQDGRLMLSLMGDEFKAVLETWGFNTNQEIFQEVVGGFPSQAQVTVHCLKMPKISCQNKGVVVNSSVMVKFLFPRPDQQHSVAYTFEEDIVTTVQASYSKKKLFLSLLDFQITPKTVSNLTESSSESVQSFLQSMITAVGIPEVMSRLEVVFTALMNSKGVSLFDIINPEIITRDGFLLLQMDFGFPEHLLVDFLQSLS
As to the kind of experiment: Clinical repeated dose study: plasma CETP activity. The experiment is classed as in vivo. The note with it: for Maximum % change from baseline in CETP activity: repeated oral doses, steady state, mean. The procedure:
(§1) The clinical study was a repeated dose study in 5 groups of Caucasian male subjects aged 18 to 55 years. Each subject received a single oral dose of Compound A/placebo on Day 1, followed by once daily doses on Days 8 to 35 (5 mg Compound A/placebo—Group 1) or Days 8 to 28 (1, 2.5, 10 and 25 mg Compound A/placebo—Groups 2 to 5). All doses were administered at the study center after a standard breakfast. Subjects in each dose group were allocated to study treatment in a ratio of 10 Compound A to 2 placebo. Blood samples for pharmacokinetic and pharmacodynamic (CETP activity, CETP concentration, HDL-C, LDL-C, total cholesterol, triglycerides) assessments were collected from prior to each dose and at intervals throughout the study until 336 hours after the last dose. Secondary pharmacodynamic endpoints (including apolipoproteins A1, A2, B, and E, HDL2-C, HDL3-C, phospholipids, HDL-free cholesterol [HDL-FC], HDL-cholesteryl ester [HDL-CE], HDL-phospholipids [HDL-PL], HDL-triglycerides [HDL-TG], and LDL particle size) were measured at intervals until the last day of dosing. Urine was collected for pharmacokinetics from pre dose and at intervals up to 72 hours after the first and last dose. Safety assessments including adverse events, blood pressure and pulse rate, ECGs, laboratory safety tests (including aldosterone) and physical examinations were conducted throughout both studies.
(§2) Plasma and urine concentrations of Compound A were determined using validated liquid chromatography with tandem mass spectrometry (LC/MS/MS) methods. The lower limit of quantification (LLQ) for both assays was 0.500 ng/mL. Plasma concentration of CETP was determined using a validated enzyme-linked immunosorbent assay (ELISA) method with a lower limit of quantification (LLQ) of 0.500 μg/mL. CETP activity was determined as the rate of [^3H]-labeled CE transfer from donor HDL to acceptor VLDL/LDL. [^3H]CE-labeled HDL was added to human plasma and incubated for 4 hours at 37° C. Non-HDL lipoproteins were precipitated and separated from HDL, and the amount of radioactivity in the supernatant was quantitated. CETP activity was determined as the difference of the radioactivity between the samples incubated at 37° C. and 4° C. HDL-C and LDL-C were measured by homogenous enzymatic colorimetric assay using a Modular analyser (Roche Diagnostics). Total cholesterol and triglycerides were measured by homogenous enzymatic assay using a Modular analyser (cholesterol oxidase peroxidase-peroxidase aminophenazone phenol [CHOP-PAP]) method and a glycerol phosphate oxidase [GPO-PAP] method, respectively. ApoA1, ApoA2, ApoB and ApoE were measured by immunoturbidimetry using reagents from Rolf Greiner Biochemica (Germany) and N-apoprotein standard serum from Siemens (Germany). LDL particle size was determined by gradient gel electrophoresis. HDL fraction was separated by a combined ultracentrifugation-precipitation method (Beta-quantification). HDL-2 and HDL-3 fractions were then separated by further ultracentrifugation. Total-cholesterol in HDL, HDL-2 and HLD-3 fractions, free cholesterol in HDL fraction, triglycerides in HDL fraction and phospholipids in plasma and HDL-fraction were measured using enzymatic methods and reagents from Diasys Diagnostics (Germany). The measurements were performed on an Olympus AU600 automatic analyzer and were calibrated using secondary standards from Roche Diagnostics (Total-cholesterol, triglycerides) and Diasys Diagnostics (free cholesterol, phospholipids), respectively. Esterified cholesterol was calculated as the difference between total-cholesterol and free cholesterol.
(§3) The sample sizes for the study were chosen based on practical considerations rather than statistical power. The numbers of subjects in each group were considered to be adequate to assess the main objectives of each study. Subjects were allocated to Compound A or placebo in each group by means of a computer-generated randomization code. […]

In experiment [2] the test system is CETP. As to the kind of experiment: Clinical repeated dose study: plasma CETP concentration (ELISA). The note with it: for Maximum % change from baseline in CETP concentration: repeated oral doses, steady state, mean. Type of experiment: in vivo, human. The procedure:
as §1, §2, §3

The subject of experiment [3] is CETP. The experiment in a line: Ex vivo serum CETP activity after oral administration to hamsters. The note with it: 3 mg/kg oral, suspension in 0.5% CMC, serum 3 hours after administration. Details: species or system Syrian Golden hamsters. As to the method: Syrian Golden hamsters were used for the experiment after 1-week acclimatization. After an overnight fast, animals were orally given the compound suspension in 0.5% sodium carboxymethylcellulose in a volume of 10 mL/kg. Under deep anesthesia with ether, blood was collected from the abdominal aorta 3 hours after the administration. For preparation of serum, the collected blood was transferred to a plastic tube containing a clot activator, left still for 15 minutes at room temperature and centrifuged. Serum CETP activities were determined immediately.
Ninety-five μL serum were added to 5 μL of […] sodium phosphate buffered saline (pH 7.0) containing 1.5 mM 5,5′-dithio-bis(2-nitrobenzoic acid) in two 96-well V-bottom plates. One plate was incubated at 4° C. and the other was incubated at 37° C. After 18 hours of incubation, each sample was mixed with 100 μL of reagent for precipitation of apolipoprotein B-containing lipoproteins (phosphotungstate/MgCl2 reagent, Wako pure chemical), left still for 10 minutes at room temperature and centrifuged. Total cholesterol (TC) and free cholesterol (FC) in supernatant were measured using commercial kits (Cholesterol E-test wako, and Free Cholesterol E-test wako; Wako pure chemical). Cholesteryl ester (CE) was calculated by subtracting FC from TC. CETP activity was determined by the following formula: CETP activity=[CETP transfer]*/[CE value in 4° C. incubation sample] *CETP transfer=[CE value in 4° C. incubation sample]−[CE value in 37° C. incubation sample] (c) Results

Take `CCOC(=O)N1c2ccc(C(F)(F)F)cc2[C@@H](N(Cc2cc(C(F)(F)F)cc(C(F)(F)F)c2)c2ncc(OCCCC(=O)O)cn2)C[C@H]1CC` [Compound A, {4-[(2-{[3,5-bis(trifluoromethyl)benzyl][(2R,4S)-1-(ethoxycarbonyl)-2-ethyl-6-(trifluoromethyl)-1,2,3,4-tetrahydroquinolin-4-yl]amino}pyrimidin-5-yl)oxy]butanoic acid}]: the “Maximum % change from baseline in CETP activity” value in experiment [1] (1 mg once daily, Caucasian male healthy subjects) is −66.5%; in experiment [1] (2.5 mg once daily) it was −91.6%; in experiment [1] (5 mg once daily), −90.9%; in experiment [1] (10 mg once daily), −97.6%; in experiment [1] (25 mg once daily), −99.4%. The “CETP activity below baseline after last dose” value in experiment [1] (2 weeks following 10 and 25 mg dosing) was “approximately 50%”. For the same compound, the “CETP activity after the last dose (in words)” value in experiment [1] (by 2 weeks following the lowest dose (1 mg)) is listed as “approaching baseline levels”. For the same compound, the “time to maximum effect on CETP inhibition” value in experiment [1] (once daily dosing, each dose) is at most 1 week. In addition, the “CETP inhibition (in words)” value in experiment [1] (repeated once daily dosages as low as 2.5 mg) was “near complete CETP-inhibition”. For the same compound, the “Maximum % change from baseline in CETP concentration” value in experiment [2] (1 mg once daily) was 128%; in experiment [2] (2.5 mg once daily), 144%; in experiment [2] (5 mg once daily), 215%; in experiment [2] (10 mg once daily), 249%; in experiment [2] (25 mg once daily) it was 280%. In experiment [2] (2 weeks following 10 mg and 25 mg), the “CETP concentration higher than baseline after cessation of dosing” value is given as “approximately 1.4 fold”. Also, the “CETP concentration after cessation of dosing (in words)” value in experiment [2] (within 2 weeks following 1 mg and 5 mg) is on record as “approaching baseline values”. Besides, in experiment [3], the “ex vivo (% inhibition) 3 mg/kg (CMC)” value amounted to 79.2%.
